Laboratory results taken from PubChem BioAssay (NCI).
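Test compounds were applied to cells in 96-well plates for 48 hours at 5 doses. TGI denotes the concentration required for complete inhibition of growth.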

Columns and labels:
Experiment in all cases: NCI tumour cell line growth inhibition, 48 h
NCI-H23 lung = tested on: NCI-H23 lung
SF-268 CNS = tested on: SF-268 CNS
MDA-MB-231 breast = tested on: MDA-MB-231 breast
LOX IMVI melanoma = tested on: LOX IMVI melanoma
HCC-2998 colon = tested on: HCC-2998 colon
SK-MEL-5 melanoma = tested on: SK-MEL-5 melanoma
SK-OV-3 ovarian = tested on: SK-OV-3 ovarian
TK-10 renal = tested on: TK-10 renal
MDA-N = tested on: MDA-N
IGROV1 ovarian = tested on: IGROV1 ovarian
T-47D breast = tested on: T-47D breast
CCRF-CEM leukemia = tested on: CCRF-CEM leukemia
SW-620 colon = tested on: SW-620 colon
KM12 colon = tested on: KM12 colon
HT29 colon = tested on: HT29 colon
UACC-257 melanoma = tested on: UACC-257 melanoma
M14 melanoma = tested on: M14 melanoma
SN12C renal = tested on: SN12C renal
SNB-75 CNS = tested on: SNB-75 CNS
MALME-3M melanoma = tested on: MALME-3M melanoma
COLO 205 colon = tested on: COLO 205 colon
K-562 leukemia = tested on: K-562 leukemia
HCT-15 colon = tested on: HCT-15 colon
SF-295 CNS = tested on: SF-295 CNS
MCF7 breast = tested on: MCF7 breast
RPMI-8226 leukemia = tested on: RPMI-8226 leukemia
PC-3 prostate = tested on: PC-3 prostate
HL-60(TB) leukemia = tested on: HL-60(TB) leukemia
SR leukemia = tested on: SR leukemia
DU-145 prostate = tested on: DU-145 prostate
EKVX NSCLC = tested on: EKVX NSCLC
OVCAR-8 ovarian = tested on: OVCAR-8 ovarian
MOLT-4 leukemia = tested on: MOLT-4 leukemia
SK-MEL-28 melanoma = tested on: SK-MEL-28 melanoma
CAKI-1 renal = tested on: CAKI-1 renal
A549 NSCLC = tested on: A549 NSCLC
786-0 renal = tested on: 786-0 renal
RXF 393 renal = tested on: RXF 393 renal
UACC-62 melanoma = tested on: UACC-62 melanoma
HOP-62 NSCLC = tested on: HOP-62 NSCLC
MDA-MB-435 = tested on: MDA-MB-435
U251 CNS = tested on: U251 CNS
UO-31 renal = tested on: UO-31 renal
NCI-H226 lung = tested on: NCI-H226 lung
SNB-19 CNS = tested on: SNB-19 CNS
NCI/ADR-RES ovarian = tested on: NCI/ADR-RES ovarian
HOP-92 NSCLC = tested on: HOP-92 NSCLC
SF-539 CNS = tested on: SF-539 CNS
NCI-H522 lung = tested on: NCI-H522 lung
A498 renal = tested on: A498 renal
NCI-H460 lung = tested on: NCI-H460 lung
SK-MEL-2 melanoma = tested on: SK-MEL-2 melanoma
HCT-116 colon = tested on: HCT-116 colon
OVCAR-4 ovarian = tested on: OVCAR-4 ovarian
HS 578T breast = tested on: HS 578T breast
OVCAR-3 ovarian = tested on: OVCAR-3 ovarian
ACHN renal = tested on: ACHN renal
BT-549 breast = tested on: BT-549 breast
OVCAR-5 ovarian = tested on: OVCAR-5 ovarian

## CN1CCN(c2cc3nsnc3c3nsnc23)CC1
NCI-H23 lung
  TGI: > 10 µM
SF-268 CNS
  TGI: > 10 µM
MDA-MB-231 breast
  TGI: > 10 µM
LOX IMVI melanoma
  TGI: > 10 µM
HCC-2998 colon
  TGI: > 10 µM
SK-MEL-5 melanoma
  TGI: > 10 µM
SK-OV-3 ovarian
  TGI: > 10 µM
TK-10 renal
  TGI: > 10 µM
MDA-N
  TGI: > 10 µM
IGROV1 ovarian
  TGI: > 10 µM
T-47D breast
  TGI: > 10 µM
CCRF-CEM leukemia
  TGI: > 10 µM
SW-620 colon
  TGI: > 10 µM
KM12 colon
  TGI: > 10 µM
HT29 colon
  TGI: > 10 µM
UACC-257 melanoma
  TGI: > 10 µM
M14 melanoma
  TGI: > 10 µM
SN12C renal
  TGI: > 10 µM
SNB-75 CNS
  TGI: > 10 µM
MALME-3M melanoma
  TGI: > 10 µM
COLO 205 colon
  TGI: > 10 µM
K-562 leukemia
  TGI: > 10 µM
HCT-15 colon
  TGI: > 10 µM
SF-295 CNS
  TGI: > 10 µM
MCF7 breast
  TGI: > 10 µM
RPMI-8226 leukemia
  TGI: > 10 µM
PC-3 prostate
  TGI: > 10 µM
HL-60(TB) leukemia
  TGI: > 10 µM
SR leukemia
  TGI: > 10 µM
DU-145 prostate
  TGI: > 10 µM
EKVX NSCLC
  TGI: > 10 µM
OVCAR-8 ovarian
  TGI: > 10 µM
MOLT-4 leukemia
  TGI: > 10 µM
SK-MEL-28 melanoma
  TGI: > 10 µM
CAKI-1 renal
  TGI: > 10 µM
A549 NSCLC
  TGI: > 10 µM
786-0 renal
  TGI: > 10 µM
RXF 393 renal
  TGI: > 10 µM
UACC-62 melanoma
  TGI: > 10 µM
HOP-62 NSCLC
  TGI: > 10 µM

## CC(NC(=O)N(C)C)NC(=O)N(C)C
NCI-H23 lung
  TGI: > 10 µM
SF-268 CNS
  TGI: > 10 µM
MDA-MB-231 breast
  TGI: > 10 µM
LOX IMVI melanoma
  TGI: > 10 µM
HCC-2998 colon
  TGI: > 10 µM
SK-MEL-5 melanoma
  TGI: > 10 µM
MDA-MB-435
  TGI: > 10 µM
SK-OV-3 ovarian
  TGI: > 10 µM
U251 CNS
  TGI: > 10 µM
TK-10 renal
  TGI: > 10 µM
MDA-N
  TGI: > 10 µM
UO-31 renal
  TGI: > 10 µM
NCI-H226 lung
  TGI: > 10 µM
SNB-19 CNS
  TGI: > 10 µM
IGROV1 ovarian
  TGI: > 10 µM
T-47D breast
  TGI: > 10 µM
NCI/ADR-RES ovarian
  TGI: > 10 µM
CCRF-CEM leukemia
  TGI: > 10 µM
HOP-92 NSCLC
  TGI: > 10 µM
SW-620 colon
  TGI: > 10 µM
KM12 colon
  TGI: > 10 µM
HT29 colon
  TGI: > 10 µM
UACC-257 melanoma
  TGI: > 10 µM
M14 melanoma
  TGI: > 10 µM
SN12C renal
  TGI: > 10 µM
SNB-75 CNS
  TGI: > 10 µM
SF-539 CNS
  TGI: > 10 µM
NCI-H522 lung
  TGI: > 10 µM
MALME-3M melanoma
  TGI: > 10 µM
COLO 205 colon
  TGI: > 10 µM
K-562 leukemia
  TGI: > 10 µM
HCT-15 colon
  TGI: > 10 µM
SF-295 CNS
  TGI: > 10 µM
MCF7 breast
  TGI: > 10 µM
RPMI-8226 leukemia
  TGI: > 10 µM
PC-3 prostate
  TGI: > 10 µM
A498 renal
  TGI: > 10 µM
HL-60(TB) leukemia
  TGI: > 10 µM
NCI-H460 lung
  TGI: > 10 µM
SK-MEL-2 melanoma
  TGI: > 10 µM
SR leukemia
  TGI: > 10 µM
HCT-116 colon
  TGI: > 10 µM
DU-145 prostate
  TGI: > 10 µM
EKVX NSCLC
  TGI: > 10 µM
OVCAR-8 ovarian
  TGI: > 10 µM
MOLT-4 leukemia
  TGI: > 10 µM
OVCAR-4 ovarian
  TGI: > 10 µM
SK-MEL-28 melanoma
  TGI: > 10 µM
CAKI-1 renal
  TGI: > 10 µM
A549 NSCLC
  TGI: > 10 µM
786-0 renal
  TGI: > 10 µM
RXF 393 renal
  TGI: > 10 µM
UACC-62 melanoma
  TGI: > 10 µM
HS 578T breast
  TGI: > 10 µM
OVCAR-3 ovarian
  TGI: > 10 µM
ACHN renal
  TGI: > 10 µM
HOP-62 NSCLC
  TGI: > 10 µM

## COC(=O)C(/C(=N\O)C(=O)Nc1cccc(Cl)c1C)c1cnc2ccccc2n1 (centres undefined)
NCI-H23 lung
  TGI: > 100 µM
SF-268 CNS
  TGI: > 100 µM
MDA-MB-231 breast
  TGI: > 100 µM
LOX IMVI melanoma
  TGI: > 100 µM
HCC-2998 colon
  TGI: > 100 µM
SK-MEL-5 melanoma
  TGI: > 100 µM
MDA-MB-435
  TGI: > 100 µM
SK-OV-3 ovarian
  TGI: > 100 µM
U251 CNS
  TGI: > 100 µM
TK-10 renal
  TGI: > 100 µM
MDA-N
  TGI: > 100 µM
UO-31 renal
  TGI: > 100 µM
NCI-H226 lung
  TGI: > 100 µM
SNB-19 CNS
  TGI: > 100 µM
IGROV1 ovarian
  TGI: > 100 µM
BT-549 breast
  TGI: > 100 µM
T-47D breast
  TGI: > 100 µM
NCI/ADR-RES ovarian
  TGI: > 100 µM
CCRF-CEM leukemia
  TGI: > 100 µM
HOP-92 NSCLC
  TGI: > 100 µM
OVCAR-5 ovarian
  TGI: > 100 µM
SW-620 colon
  TGI: > 100 µM
KM12 colon
  TGI: > 100 µM
HT29 colon
  TGI: > 100 µM
UACC-257 melanoma
  TGI: > 100 µM
M14 melanoma
  TGI: > 100 µM
SN12C renal
  TGI: > 100 µM
SNB-75 CNS
  TGI: > 100 µM
SF-539 CNS
  TGI: > 100 µM
NCI-H522 lung
  TGI: > 100 µM
MALME-3M melanoma
  TGI: > 100 µM
COLO 205 colon
  TGI: > 100 µM
K-562 leukemia
  TGI: > 100 µM
HCT-15 colon
  TGI: > 100 µM
SF-295 CNS
  TGI: > 100 µM
MCF7 breast
  TGI: > 100 µM
PC-3 prostate
  TGI: > 100 µM
A498 renal
  TGI: > 100 µM
NCI-H460 lung
  TGI: > 100 µM
SK-MEL-2 melanoma
  TGI: > 100 µM
SR leukemia
  TGI: > 100 µM
HCT-116 colon
  TGI: > 100 µM
DU-145 prostate
  TGI: > 100 µM
EKVX NSCLC
  TGI: > 100 µM
OVCAR-8 ovarian
  TGI: > 100 µM
MOLT-4 leukemia
  TGI: > 100 µM
OVCAR-4 ovarian
  TGI: > 100 µM
SK-MEL-28 melanoma
  TGI: > 100 µM
CAKI-1 renal
  TGI: > 100 µM
A549 NSCLC
  TGI: > 100 µM
786-0 renal
  TGI: > 100 µM
RXF 393 renal
  TGI: > 100 µM
UACC-62 melanoma
  TGI: > 100 µM
OVCAR-3 ovarian
  TGI: > 100 µM
ACHN renal
  TGI: > 100 µM
HOP-62 NSCLC
  TGI: > 100 µM

## COc1cc(NC(C)=O)ccc1C(=O)NN1C(=O)/C(=C/c2ccco2)N=C1c1ccccc1
NCI-H23 lung
  TGI: > 50 µM
SF-268 CNS
  TGI: > 50 µM
LOX IMVI melanoma
  TGI: > 50 µM
SK-MEL-5 melanoma
  TGI: > 50 µM
MDA-MB-435
  TGI: > 50 µM
SK-OV-3 ovarian
  TGI: > 50 µM
MDA-N
  TGI: > 50 µM
UO-31 renal
  TGI: > 50 µM
SNB-19 CNS
  TGI: > 50 µM
IGROV1 ovarian
  TGI: > 50 µM
BT-549 breast
  TGI: > 50 µM
T-47D breast
  TGI: > 50 µM
NCI/ADR-RES ovarian
  TGI: > 50 µM
CCRF-CEM leukemia
  TGI: 31.1 µM
HOP-92 NSCLC
  TGI: > 50 µM
OVCAR-5 ovarian
  TGI: > 50 µM
SW-620 colon
  TGI: > 50 µM
HT29 colon
  TGI: > 50 µM
M14 melanoma
  TGI: > 50 µM
SN12C renal
  TGI: > 50 µM
SNB-75 CNS
  TGI: > 50 µM
SF-539 CNS
  TGI: > 50 µM
NCI-H522 lung
  TGI: > 50 µM
MALME-3M melanoma
  TGI: > 50 µM
COLO 205 colon
  TGI: > 50 µM
K-562 leukemia
  TGI: > 50 µM
HCT-15 colon
  TGI: > 50 µM
SF-295 CNS
  TGI: > 50 µM
MCF7 breast
  TGI: > 50 µM
RPMI-8226 leukemia
  TGI: 31.8 µM
PC-3 prostate
  TGI: > 50 µM
A498 renal
  TGI: > 50 µM
HL-60(TB) leukemia
  TGI: > 50 µM
SK-MEL-2 melanoma
  TGI: > 50 µM
SR leukemia
  TGI: > 50 µM
HCT-116 colon
  TGI: > 50 µM
DU-145 prostate
  TGI: > 50 µM
EKVX NSCLC
  TGI: > 50 µM
OVCAR-8 ovarian
  TGI: > 50 µM
MOLT-4 leukemia
  TGI: 45.6 µM
OVCAR-4 ovarian
  TGI: > 50 µM
SK-MEL-28 melanoma
  TGI: > 50 µM
CAKI-1 renal
  TGI: > 50 µM
A549 NSCLC
  TGI: > 50 µM
786-0 renal
  TGI: > 50 µM
RXF 393 renal
  TGI: > 50 µM
UACC-62 melanoma
  TGI: > 50 µM
HS 578T breast
  TGI: > 50 µM
OVCAR-3 ovarian
  TGI: > 50 µM
ACHN renal
  TGI: > 50 µM
HOP-62 NSCLC
  TGI: > 50 µM
